Measured values published in paper PMC5319980, “Mutant Analysis Reveals Allosteric Regulation of ClpB Disaggregase” (Frontiers in Molecular Biosciences, 2017).
One block for each molecule: values may come before it.

How the values were obtained:
[1] = target: T1, ClpB (Escherichia coli, UniProt P63284); experiment: biochemical; parameters: competition titration of nucleotide against preformed ClpB-mantADP complex, mantADP fluorescence; conditions: competition with 1.25 uM mantADP; read-out: Knuc (WT)
T1 construct: ClpB wild type
Procedure: with F: observed fluorescence; F0: starting fluorescence without nucleotide; F1: maximum fluorescence observed; [ATP]: concentration of ADP/ATPγS (μM); Ki,app: apparent dissociation constant. with Ki,app: apparent dissociation constant; Ki: dissociation constant; [mantADP]: mantADP concentration (μM); Kd (mantADP): dissociation constant of mantADP. […] ClpB WT and mutants were incubated for 5 min at 25°C in presence of 2 mM ATPγS. Crosslinking reactions were started by addition of glutaraldehyde and proceeded for 2 and 10 min. Crosslinking products were separated by SDS-PAGE, followed by Sypro-Ruby staining. Supplementary Figure 2 Nucleotide binding properties of ClpB wild type. (A)1,5 µM mantADP was incubated with increasing concentrations of ClpB wild type and derivatives and the increase in mantADP fluorescence was determined. The fluorescence intensity of mantADP in absence of ClpB proteins was set at 1. Determined dissociation constants (Kd) are given. (B) Increasing nucleotide concentrations (ADP, ATPγS) were added to a preformed ClpB-mantADP complex (1,25 µM MANTADP, 1,25 µM ClpB WT or derivatives). Determined dissociation constants (Kd) are given.

[2] = target: T1, ClpB; experiment: NADH-coupled ATPase assay with purified ClpB, without and with casein; type: biochemical
[3] = target: ClpB (Escherichia coli, UniProt P63284, A328V); experiment: equilibrium fluorescence titration of mantADP with ClpB; type: binding
[4] = target: ClpB (Escherichia coli, UniProt P63284, K476C); experiment: as above; type: binding
[5] = target: T1, ClpB; experiment: as above; type: binding

T1 sequence (P63284 whole entry): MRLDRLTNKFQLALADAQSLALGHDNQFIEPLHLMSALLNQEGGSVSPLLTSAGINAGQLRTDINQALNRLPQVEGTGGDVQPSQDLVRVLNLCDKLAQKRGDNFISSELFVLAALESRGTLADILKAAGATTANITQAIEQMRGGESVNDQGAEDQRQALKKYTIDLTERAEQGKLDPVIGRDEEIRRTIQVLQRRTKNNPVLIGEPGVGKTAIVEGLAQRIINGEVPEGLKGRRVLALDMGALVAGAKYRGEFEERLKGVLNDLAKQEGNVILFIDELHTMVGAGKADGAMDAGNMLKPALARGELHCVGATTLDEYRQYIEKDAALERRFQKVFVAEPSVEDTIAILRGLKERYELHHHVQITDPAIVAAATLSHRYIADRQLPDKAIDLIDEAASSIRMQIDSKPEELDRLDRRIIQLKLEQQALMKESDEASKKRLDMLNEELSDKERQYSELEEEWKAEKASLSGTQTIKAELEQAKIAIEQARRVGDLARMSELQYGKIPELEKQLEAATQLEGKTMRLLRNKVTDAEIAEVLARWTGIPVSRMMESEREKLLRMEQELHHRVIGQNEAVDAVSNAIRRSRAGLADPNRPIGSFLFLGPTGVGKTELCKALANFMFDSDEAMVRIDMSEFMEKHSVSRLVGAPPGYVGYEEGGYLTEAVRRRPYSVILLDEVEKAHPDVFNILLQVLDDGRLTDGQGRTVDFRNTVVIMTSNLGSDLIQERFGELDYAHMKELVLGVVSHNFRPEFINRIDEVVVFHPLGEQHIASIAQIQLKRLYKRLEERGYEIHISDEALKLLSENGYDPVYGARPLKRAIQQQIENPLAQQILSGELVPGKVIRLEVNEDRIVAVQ
ClpB (Escherichia coli, UniProt P63284, A328V), sequence (P63284 whole entry A328V): as the sequence (P63284 whole entry) above, with A328V counted along it
ClpB (Escherichia coli, UniProt P63284, K476C), sequence (P63284 whole entry K476C, looked up): as the sequence (P63284 whole entry) above, with K476C counted along it

Kd [1]: 7600 nM
Molecule: Nc1ncnc2c1ncn2[C@@H]1O[C@H](COP(=O)(O)OP(=O)(O)O)[C@@H](O)[C@H]1O [ADP]

Molecule: Nc1ncnc2c1ncn2[C@@H]1O[C@H](COP(=O)(O)OP(=O)(O)OP(=O)(O)O)[C@@H](O)[C@H]1O [ATP]
NADH-coupled ATPase assay with purified ClpB, without and with casein [2]: ATPase activities of ClpB wild type (WT) and indicated ClpB mutants were determined in absence (−) and presence (+)

Kd [1]: 8100 nM
Molecule: Nc1ncnc2c1ncn2[C@@H]1O[C@H](CO[P@](=O)(O)O[P@](=O)(O)O[P@@](=O)(O)S)[C@@H](O)[C@H]1O [ATPγS]

Molecule: mantADP
Kd [3]: 510 nM | Kd [4]: 250 nM | Kd [5]: 230 nM
